Results reported in publication PMC6979384, “Characterization of the plant homeodomain (PHD) reader family for their histone tail interactions” (Epigenetics & Chromatin, 2020).
Where no end group is shown, it is not given here.

Tests used:
Experiment in all cases: Histone peptide microarray
Type in all cases: binding, human
DIDO1 = details: DIDO1, GST-tagged; arrays performed twice, n of 4
Excerpt: (§1) To more comprehensively define the histone interactions of the 31 PHD readers identified from the domain microarray analyses, we probed each on an alternate microarray platform containing a library of 293 synthetic histone peptides with single or combinatorial PTMs (Additional file 2: Figure S4 and Additional file 3: Table S2).
(§2) The 31 GST-tagged PHD readers identified in the PHD finger domain array were expressed and purified as previously. Histone peptide arrays and peptide pulldown assays were conducted as recently described (specifically, the optimized protocol from Petell et al. for the former).
(§3) Supplementary file 13072_2020_328_MOESM3_ESM.xlsx: Additional file 3: Table S2. […] Excel Tab Peptide List is a compiled list of the entire 293 histone peptide library with amino acid sequence ranges. […] Each number corresponds to the peptide number designated in Peptide List. Excel Tab Average Signals is a compiled set of binding data: chromatin reader at 0.5 μM vs. entire 293 peptide library. Data is presented as the average and standard deviation of 4 replicates. The average signals are colored to indicate signal intensity with green being strong and white being weak/low. […] Key: red= stronger relative binding; blue = weaker relative binding. Excel Tab Array info summary is a table summarizing the domains, sequence coverage, array signal range, and noise for each of the GST-tagged readers assayed on the peptide microarrays.

RAG2 = details: RAG2, GST-tagged; arrays performed twice, n of 4
Excerpt: as §1, §2, §3

PHRF1 (RP) = details: PHRF1 (RP), GST-tagged; arrays performed twice, n of 4
Excerpt: as §1, §2, §3

PHF13 = details: PHF13, GST-tagged; arrays performed twice, n of 4
Excerpt: as §1, §2, §3

PHF2 = details: PHF2, GST-tagged; arrays performed twice, n of 4
Excerpt: as §1, §2, §3

SP140L = details: SP140L, GST-tagged; arrays performed twice, n of 4
Excerpt: as §1, §2, §3

PHF8 = details: PHF8, GST-tagged; arrays performed twice, n of 4
Excerpt: as §1, §2, §3

KDM5A (3) = details: KDM5A (3), GST-tagged; arrays performed twice, n of 4
Excerpt: as §1, §2, §3

KDM4C (TTP) = details: KDM4C (TTP), GST-tagged; arrays performed twice, n of 4
Excerpt: as §1, §2, §3

KDM5B (3) = details: KDM5B (3), GST-tagged; arrays performed twice, n of 4
Excerpt: as §1, §2, §3

KDM5B (1) = details: KDM5B (1), GST-tagged; arrays performed twice, n of 4
Excerpt: as §1, §2, §3

BPTF (PB) = details: BPTF (PB), GST-tagged; arrays performed twice, n of 4
Excerpt: as §1, §2, §3

MORC3 (CW) = details: MORC3 (CW), GST-tagged; arrays performed twice, n of 4
Excerpt: as §1, §2, §3

CHD5 (PCC) = details: CHD5 (PCC), GST-tagged; arrays performed twice, n of 4
Excerpt: as §1, §2, §3

KDM5A (1) = details: KDM5A (1), GST-tagged; arrays performed twice, n of 4
Excerpt: as §1, §2, §3

ING3 = details: ING3, GST-tagged; arrays performed twice, n of 4
Excerpt: as §1, §2, §3

ING5 = details: ING5, GST-tagged; arrays performed twice, n of 4
Excerpt: as §1, §2, §3

PHF23 = details: PHF23, GST-tagged; arrays performed twice, n of 4
Excerpt: as §1, §2, §3

KDM7A = details: KDM7A, GST-tagged; arrays performed twice, n of 4
Excerpt: as §1, §2, §3

TRIM66 (PB) = details: TRIM66 (PB), GST-tagged; arrays performed twice, n of 4
Excerpt: as §1, §2, §3

ING1 = details: ING1, GST-tagged; arrays performed twice, n of 4
Excerpt: as §1, §2, §3

BAZ2B = details: BAZ2B, GST-tagged; arrays performed twice, n of 4
Excerpt: as §1, §2, §3

AIRE (PP) = details: AIRE (PP), GST-tagged; arrays performed twice, n of 4
Excerpt: as §1, §2, §3

MLL5 = details: MLL5, GST-tagged; arrays performed twice, n of 4
Excerpt: as §1, §2, §3

DPF2 (PPC2W2) = details: DPF2 (PPC2W2), GST-tagged; arrays performed twice, n of 4
Excerpt: as §1, §2, §3

ING4 = details: ING4, GST-tagged; arrays performed twice, n of 4
Excerpt: as §1, §2, §3

CHD5 (PPCC) = details: CHD5 (PPCC), GST-tagged; arrays performed twice, n of 4
Excerpt: as §1, §2, §3

ING2 = details: ING2, GST-tagged; arrays performed twice, n of 4
Excerpt: as §1, §2, §3

CHD4 (PPCC) = details: CHD4 (PPCC), GST-tagged; arrays performed twice, n of 4
Excerpt: as §1, §2, §3

TAF3 = details: TAF3, GST-tagged; arrays performed twice, n of 4
Excerpt: as §1, §2, §3

PHF21A = details: PHF21A, GST-tagged; arrays performed twice, n of 4
Excerpt: as §1, §2, §3

| Substance | Array Heatmap value (peptide array binding signal) (DIDO1) | Array Heatmap value (peptide array binding signal) (RAG2) | Array Heatmap value (peptide array binding signal) (PHRF1 (RP)) | Array Heatmap value (peptide array binding signal) (PHF13) | Array Heatmap value (peptide array binding signal) (PHF2) | Array Heatmap value (peptide array binding signal) (SP140L) | Array Heatmap value (peptide array binding signal) (PHF8) | Array Heatmap value (peptide array binding signal) (KDM5A (3)) | Array Heatmap value (peptide array binding signal) (KDM4C (TTP)) | Array Heatmap value (peptide array binding signal) (KDM5B (3)) | Array Heatmap value (peptide array binding signal) (KDM5B (1)) | Array Heatmap value (peptide array binding signal) (BPTF (PB)) | Array Heatmap value (peptide array binding signal) (MORC3 (CW)) | Array Heatmap value (peptide array binding signal) (CHD5 (PCC)) | Array Heatmap value (peptide array binding signal) (KDM5A (1)) | Array Heatmap value (peptide array binding signal) (ING3) | Array Heatmap value (peptide array binding signal) (ING5) | Array Heatmap value (peptide array binding signal) (PHF23) | Array Heatmap value (peptide array binding signal) (KDM7A) | Array Heatmap value (peptide array binding signal) (TRIM66 (PB)) | also measured |
| --- | --- | --- | --- | --- | --- | --- | --- | --- | --- | --- | --- | --- | --- | --- | --- | --- | --- | --- | --- | --- | --- |
| H2A.Z (1-19) (N-ac): H2AZ 1-19 (Ac-AGGKAGKDSGKAKTKAVSR; UniProt P0C0S5 2-20, looked up, fragment) | 0.6117 | 0.2204 | 0.3855 | 0.5558 | 0.4703 | 0.3411 | 0.3344 | 0.4284 | 0.4403 | 0.4159 | 0.624 | 0.3189 | 0.339 | 0.7354 | 0.3887 | 0.4524 | 0.2996 | 0.4986 | 0.3467 | 0.556 | Array Heatmap value (peptide array binding signal) (ING1): 0.4946; Array Heatmap value (peptide array binding signal) (BAZ2B): 0.3915; Array Heatmap value (peptide array binding signal) (AIRE (PP)): 0.3861; Array Heatmap value (peptide array binding signal) (MLL5): 0.5006; Array Heatmap value (peptide array binding signal) (DPF2 (PPC2W2)): 0.6034; Array Heatmap value (peptide array binding signal) (ING4): 0.3991; Array Heatmap value (peptide array binding signal) (CHD5 (PPCC)): 0.4838; Array Heatmap value (peptide array binding signal) (ING2): 0.5892; Array Heatmap value (peptide array binding signal) (CHD4 (PPCC)): 0.5396; Array Heatmap value (peptide array binding signal) (TAF3): 0.2353; Array Heatmap value (peptide array binding signal) (PHF21A): 0.4295 |
| H2A.Z (1-19): H2AZ 1-19 (AGGKAGKDSGKAKTKAVSR; UniProt P0C0S5 2-20, looked up, fragment) | 0.7863 | 0.2847 | 0.5374 | 0.7054 | 0.6568 | 0.3948 | 0.402 | 0.4992 | 0.563 | 0.4993 | 0.6378 | 0.4073 | 0.3781 | 0.7976 | 0.5328 | 0.5693 | 0.4264 | 0.5743 | 0.3952 | 0.6377 | Array Heatmap value (peptide array binding signal) (ING1): 0.6166; Array Heatmap value (peptide array binding signal) (BAZ2B): 0.5259; Array Heatmap value (peptide array binding signal) (AIRE (PP)): 0.4876; Array Heatmap value (peptide array binding signal) (MLL5): 0.5607; Array Heatmap value (peptide array binding signal) (DPF2 (PPC2W2)): 0.7315; Array Heatmap value (peptide array binding signal) (ING4): 0.5367; Array Heatmap value (peptide array binding signal) (CHD5 (PPCC)): 0.6481; Array Heatmap value (peptide array binding signal) (ING2): 0.6115; Array Heatmap value (peptide array binding signal) (CHD4 (PPCC)): 0.6658; Array Heatmap value (peptide array binding signal) (TAF3): 0.3163; Array Heatmap value (peptide array binding signal) (PHF21A): 0.4938 |
| H2A.Z K4ac + K8ac + K12ac (1-19) (N-ac): H2AZ 1-19 (Ac-AGGKAGKDSGKAKTKAVSR; not fully specified (residue 4); UniProt P0C0S5 2-20, looked up, fragment) | 0.7683 | 0.271 | 0.5134 | 0.6948 | 0.5309 | 0.395 | 0.4227 | 0.4842 | 0.565 | 0.5225 | 0.6584 | 0.4048 | 0.4285 | 0.8638 | 0.5365 | 0.5369 | 0.4262 | 0.5933 | 0.3929 | 0.6947 | Array Heatmap value (peptide array binding signal) (ING1): 0.5984; Array Heatmap value (peptide array binding signal) (BAZ2B): 0.5346; Array Heatmap value (peptide array binding signal) (AIRE (PP)): 0.5817; Array Heatmap value (peptide array binding signal) (MLL5): 0.5838; Array Heatmap value (peptide array binding signal) (DPF2 (PPC2W2)): 0.7519; Array Heatmap value (peptide array binding signal) (ING4): 0.5392; Array Heatmap value (peptide array binding signal) (CHD5 (PPCC)): 0.6452; Array Heatmap value (peptide array binding signal) (ING2): 0.6161; Array Heatmap value (peptide array binding signal) (CHD4 (PPCC)): 0.6197; Array Heatmap value (peptide array binding signal) (TAF3): 0.3233; Array Heatmap value (peptide array binding signal) (PHF21A): 0.5429 |
